Source: patent publication US9255257B2, “PmST1 mutants for chemoenzymatic synthesis of sialyl lewis X compounds” (THE REGENTS OF THE UNIVERSITY OF CALIFORNIA, priority 2011, dated 2016)

Experiments:
Assay in all cases: α2-3-sialyltransferase activity, LacβMU as acceptor
Assay type in all cases: biochemical
Settings in all cases: apparent, donor, LacβMU 1 mM, Tris-HCl pH 8.5, 37° C.
[1] = molecular target: Pasteurella multocida PmST1 mutant E271F of SEQ ID NO: 13 (E247F of Δ24PmST1, SEQ ID NO: 7) (Pasteurella multocida, UniProt Q15KI8, E271F)
Description: (§1) To obtain the apparent kinetic parameters of LacβMU as the acceptor for the α2-3-sialyltransferase activity, the kinetic assays were performed in duplicate in reaction mixtures of 10 μL containing Tris-HCl buffer (100 mM, pH 8.5), a fixed concentration of CMP-Neu5Ac (1 mM), different concentrations of LacβMU (0.2, 0.5, 1.0, 2.0, 5.0, and 9.0 mM) and the mutant proteins (2 μg mL^−1 of E271F, 2 μg mL^−1 of R313Y, and 1.6 μg mL^−1 of E271F/R313Y). All reactions were allowed to proceed at 37° C. for 5 min (E271F), 7 min (R313Y), and 10 min (E271F/R313Y). The apparent kinetic parameters were obtained by fitting the experimental data (the average values of duplicate assay results) into the Michaelis-Menten equation using Grafit 5.0.
(§2) To obtain the apparent kinetic parameters of CMP-Neu5Ac as the donor for the α2-3-sialyltransferase activity, the kinetic assays were performed in duplicate in reaction mixtures of 10 μL containing Tris-HCl buffer (100 mM, pH 8.5), a fixed concentration of LacβMU (1 mM), different concentrations of CMP-Neu5Ac (0.1, 0.2, 0.5, 1.0, 2.0, 5.0, 10.0 and 20.0 mM) and the mutant proteins (2 μg mL^−1 of E271F, 2 μg mL^−1 of R313Y, and 1.6 μg mL^−1 of E271F/R313Y). All reactions were allowed to proceed at 37° C. for 2 min (E271F), 7 min (R313Y), and 5 min (E271F/R313Y). The apparent kinetic parameters were obtained by fitting the experimental data (the average values of duplicate assay results) into the Michaelis-Menten equation using Grafit 5.0.
(§3) All the sialidase and α2-3-sialyltransferase assays were performed in an HPLC system. Reactions were stopped by adding 10 μL of ethanol. After necessary dilutions were performed to adjust the concentrations of the fluorescent-labeled compounds, the samples were then kept on ice until aliquots of 8 μL were injected and analyzed by a Shimadzu LC-6AD system equipped with a membrane on-line degasser, a temperature control unit, and a fluorescence detector (Shimadzu RF-10AXL). A reverse-phase Premier C18 column (250×4.6 mm i.d., 5 μm particle size, Shimadzu) protected with a C18 guard column cartridge was used. The mobile phase was 25% acetonitrile. The fluorescent compounds LacβMU and Neu5Acα2-3LacβMU were detected by excitation at 325 nm and emission at 372 nm.

[2] = molecular target: Pasteurella multocida PmST1 double mutant E271F/R313Y of SEQ ID NO: 13 (E247F/R289Y of Δ24PmST1, SEQ ID NO: 11) (Pasteurella multocida, UniProt Q15KI8, E271F/R313Y)
Description: as §1, §2, §3

[3] = molecular target: Pasteurella multocida PmST1 mutant R313Y of SEQ ID NO: 13 (R289Y of Δ24PmST1, SEQ ID NO: 9) (Pasteurella multocida, UniProt Q15KI8, R313Y)
Description: as §1, §2, §3

CC(=O)N[C@H]1[C@H]([C@H](O)[C@H](O)CO)O[C@](OP(=O)(O)OC[C@H]2O[C@@H](n3ccc(N)nc3=O)[C@H](O)[C@@H]2O)(C(=O)O)C[C@@H]1O [CMP-Neu5Ac]
kcat (CMP-Neu5Ac) [1]: 26 ± 1 s⁻¹ | kcat (CMP-Neu5Ac) [2]: 23 ± 1 s⁻¹ | kcat (CMP-Neu5Ac) [3]: 19 ± 1 s⁻¹
